Reference: ChEMBL document CHEMBL1201862, “PubChem BioAssay data set” (2004)
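Results reflect a 48-hour exposure of cells in 96-well plates to compound at five concentrations. Here, GI50 denotes the concentration required for 50% inhibition of growth.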 Calls of active or inactive are those of the source. Cut-off read from the data, not from the text of the source: active = GI50 up to about 1.1 µM and inactive = higher.

Assays:
Assay in all cases: DTP human tumour cell line panel, 48 h
[1] = system: SNB-19
[2] = system: LXFL 529
[3] = system: CCRF-CEM
[4] = system: LOX IMVI
[5] = system: SW-620
[6] = system: TK-10
[7] = system: KM-20L2
[8] = system: HCT-15
[9] = system: RPMI-8226
[10] = system: HOP-92
[11] = system: OVCAR-8
[12] = system: SK-OV-3
[13] = system: SNB-75
[14] = system: ACHN
[15] = system: HT-29
[16] = system: HL-60
[17] = system: DLD-1
[18] = system: DMS-114
[19] = system: KM12
[20] = system: SF-539
[21] = system: SK-MEL-5
[22] = system: OVCAR-3
[23] = system: NCI-H226
[24] = system: HOP-62
[25] = system: K562
[26] = system: UACC-257
[27] = system: COLO 205
[28] = system: OVCAR-4
[29] = system: 786-0
[30] = system: NCI-H460
[31] = system: U-251
[32] = system: SR
[33] = system: A549
[34] = system: OVCAR-5
[35] = system: RXF 393
[36] = system: M14
[37] = system: SK-MEL-28
[38] = system: SF-295
[39] = system: IGROV-1
[40] = system: UACC-62
[41] = system: EKVX
[42] = system: SN12C
[43] = system: NCI-H23
[44] = system: HCT-116
[45] = system: XF498
[46] = system: SF-268
[47] = system: NCI-H522
[48] = system: DMS-273
[49] = system: SK-MEL-2
[50] = system: CAKI-1
[51] = system: HOP-18
[52] = system: Malme-3M
[53] = system: MOLT-4
[54] = system: A498
[55] = system: HCC 2998
[56] = system: SNB-78
[57] = system: M19-MEL
[58] = system: UO-31

For `NC(Cc1ccccc1)C(=O)OCN1C(=O)C2C3C=CC(C2C1=O)C1C2C(=O)N(COC(=O)C(N)Cc4ccccc4)C(=O)C2C31` (stereo not given), the GI50 [1] was 50.1 µM (inactive), the GI50 [2] was 19.4 µM (inactive) and the GI50 [3] was 21.1 µM (inactive). For the same molecule, the GI50 [4] was 21.4 µM (inactive), the GI50 [5] was 19.5 µM (inactive) and the GI50 [6] was 49.3 µM (inactive). The GI50 [7] was 28.4 µM (inactive), the GI50 [8] was 17.8 µM and the GI50 [9] was 27.2 µM (inactive). For the same molecule, the GI50 [10] was 32 µM (inactive), the GI50 [11] was 23.7 µM (inactive) and the GI50 [12] was 50.2 µM (inactive). The GI50 [13] was 22.9 µM (inactive), the GI50 [14] was 23.1 µM (inactive) and the GI50 [15] was 33.2 µM (inactive). For the same molecule, the GI50 [16] was 23.7 µM (inactive), the GI50 [17] was 23 µM (inactive) and the GI50 [18] was 20.9 µM (inactive). For the same molecule, the GI50 [19] was 21.3 µM (inactive), the GI50 [20] was 22.2 µM (inactive) and the GI50 [21] was 18.3 µM (inactive). For the same molecule, the GI50 [22] was 33 µM (inactive), the GI50 [23] was 46.7 µM (inactive) and the GI50 [24] was > 100 µM (inactive). The GI50 [25] was 25.8 µM (inactive), the GI50 [26] was 28.8 µM (inactive) and the GI50 [27] was 17.5 µM (inactive). The GI50 [28] was 18.3 µM (inactive), the GI50 [29] was 21.1 µM (inactive) and the GI50 [30] was 14.4 µM (inactive). For the same molecule, the GI50 [31] was 20.7 µM (inactive), the GI50 [32] was 27.7 µM (inactive) and the GI50 [33] was 25.9 µM (inactive). The GI50 [34] was 47 µM (inactive), the GI50 [35] was 22.5 µM (inactive) and the GI50 [36] was 20.4 µM (inactive). For the same molecule, the GI50 [37] was 22.9 µM (inactive), the GI50 [38] was 48 µM (inactive) and the GI50 [39] was 35.6 µM (inactive). The GI50 [40] was 23 µM (inactive), the GI50 [41] was > 100 µM (inactive) and the GI50 [42] was 22.3 µM (inactive). The GI50 [43] was 20.2 µM (inactive), the GI50 [44] was 16.3 µM (inactive) and the GI50 [45] was 30.8 µM (inactive). For the same molecule, the GI50 [46] was 25.9 µM (inactive).

For `CCc1ccccc1-n1c2nc(=O)n(C)c(=O)c-2nc2ccccc21`, the GI50 [1] was 10.8 µM (inactive), the GI50 [47] was 13.6 µM (inactive) and the GI50 [2] was 11.1 µM (inactive). The GI50 [48] was 8.71 µM (inactive), the GI50 [3] was 11.2 µM (inactive) and the GI50 [5] was 13.8 µM (inactive). The GI50 [49] was 17.4 µM (inactive), the GI50 [6] was 8.95 µM (inactive) and the GI50 [7] was 4.08 µM (inactive). For the same molecule, the GI50 [8] was 10 µM, the GI50 [50] was 20 µM (inactive) and the GI50 [9] was 12.6 µM (inactive). For the same molecule, the GI50 [11] was 5.96 µM (inactive), the GI50 [12] was 40.2 µM (inactive) and the GI50 [13] was 14.2 µM (inactive). The GI50 [51] was 11.9 µM (inactive), the GI50 [14] was 3.92 µM (inactive) and the GI50 [52] was 5.7 µM (inactive). The GI50 [15] was 3.63 µM (inactive), the GI50 [17] was 16.3 µM (inactive) and the GI50 [18] was 3.83 µM (inactive). For the same molecule, the GI50 [19] was 10.8 µM (inactive), the GI50 [20] was 14.1 µM (inactive) and the GI50 [53] was 13.2 µM (inactive). The GI50 [21] was 4.29 µM (inactive), the GI50 [22] was 2.49 µM (inactive) and the GI50 [23] was 18.4 µM (inactive). The GI50 [24] was 29.6 µM (inactive), the GI50 [25] was 12.1 µM (inactive) and the GI50 [26] was 5.11 µM (inactive). The GI50 [54] was 15.9 µM (inactive), the GI50 [27] was 2.77 µM (inactive) and the GI50 [28] was 4.89 µM (inactive). The GI50 [29] was 7.21 µM (inactive), the GI50 [30] was 4.55 µM (inactive) and the GI50 [31] was 16 µM (inactive). For the same molecule, the GI50 [33] was 8.24 µM (inactive), the GI50 [55] was 11.1 µM (inactive) and the GI50 [34] was 20 µM (inactive). The GI50 [35] was 13.7 µM (inactive), the GI50 [36] was 6.59 µM (inactive) and the GI50 [56] was 16.9 µM (inactive). For the same molecule, the GI50 [38] was 11.5 µM (inactive), the GI50 [57] was 1.85 µM (inactive) and the GI50 [39] was 17.5 µM (inactive). For the same molecule, the GI50 [58] was 21.5 µM (inactive), the GI50 [40] was 2.2 µM (inactive) and the GI50 [41] was 12.1 µM (inactive). For the same molecule, the GI50 [42] was 13.5 µM (inactive), the GI50 [43] was 4.03 µM (inactive) and the GI50 [44] was 12.6 µM (inactive). For the same molecule, the GI50 [45] was 10.3 µM (inactive) and the GI50 [46] was 11 µM (inactive).

In the case of `Nc1nc(NC2C=C(CO)C(O)C2O)c([N+](=O)[O-])c(=O)[nH]1` (stereo not given), the GI50 [1] was > 100 µM (inactive), the GI50 [47] was > 100 µM (inactive) and the GI50 [2] was > 100 µM (inactive). The GI50 [48] was > 100 µM (inactive), the GI50 [3] was > 100 µM (inactive) and the GI50 [4] was > 100 µM (inactive). The GI50 [5] was > 100 µM (inactive), the GI50 [49] was > 100 µM (inactive) and the GI50 [6] was > 100 µM (inactive). For the same molecule, the GI50 [7] was > 100 µM (inactive), the GI50 [8] was > 100 µM and the GI50 [50] was > 100 µM (inactive). For the same molecule, the GI50 [10] was > 100 µM (inactive), the GI50 [11] was > 100 µM (inactive) and the GI50 [12] was > 100 µM (inactive). The GI50 [13] was > 100 µM (inactive), the GI50 [51] was > 100 µM (inactive) and the GI50 [14] was > 100 µM (inactive). The GI50 [52] was > 100 µM (inactive), the GI50 [15] was > 100 µM (inactive) and the GI50 [17] was > 100 µM (inactive). For the same molecule, the GI50 [18] was > 100 µM (inactive), the GI50 [19] was > 100 µM (inactive) and the GI50 [20] was > 100 µM (inactive). For the same molecule, the GI50 [53] was > 100 µM (inactive), the GI50 [21] was > 100 µM (inactive) and the GI50 [22] was > 100 µM (inactive). The GI50 [23] was > 100 µM (inactive), the GI50 [24] was > 100 µM (inactive) and the GI50 [25] was > 100 µM (inactive). For the same molecule, the GI50 [26] was > 100 µM (inactive), the GI50 [54] was > 100 µM (inactive) and the GI50 [27] was > 100 µM (inactive). The GI50 [28] was > 100 µM (inactive), the GI50 [29] was > 100 µM (inactive) and the GI50 [30] was > 100 µM (inactive). The GI50 [31] was > 100 µM (inactive), the GI50 [32] was > 100 µM (inactive) and the GI50 [33] was > 100 µM (inactive). For the same molecule, the GI50 [55] was > 100 µM (inactive), the GI50 [34] was > 100 µM (inactive) and the GI50 [35] was > 100 µM (inactive). For the same molecule, the GI50 [36] was > 100 µM (inactive), the GI50 [37] was > 100 µM (inactive) and the GI50 [56] was > 100 µM (inactive). The GI50 [38] was > 100 µM (inactive), the GI50 [57] was > 100 µM (inactive) and the GI50 [39] was > 100 µM (inactive). The GI50 [58] was > 100 µM (inactive), the GI50 [40] was > 100 µM (inactive) and the GI50 [41] was > 100 µM (inactive). The GI50 [42] was > 100 µM (inactive), the GI50 [43] was > 100 µM (inactive) and the GI50 [44] was > 100 µM (inactive). The GI50 [45] was > 100 µM (inactive) and the GI50 [46] was > 100 µM (inactive).
